Measured values published in patent US10947252B2, “Inhibitors of KEAP1-Nrf2 protein-protein interaction” (Janssen Pharmaceutica NV, priority 2018, dated 2021).

system: Glo-Response ARE-luc2P HEK293 cell line; assay: ARE luciferase reporter cell-based assay; conditions: 24 hours, average of results obtained;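 also: luciferase signal tracks Nrf2 activation of the ARE once compounds disrupt KEAP1-Nrf2 binding, read with One-Glo reagent, DMSO serving as low control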

`Cc1ccc([C@H](CC(=O)O)c2ccn3c(C(F)(F)F)nnc3c2C)cc1CN1C[C@@H]2COCCN2c2ncccc2S1(=O)=O` (relative stereo) [Example 276, (*S)-3-(3-(((*R)-5,5-Dioxido-7a,8,10,11-tetrahydro-[1,4]oxazino[3,4-d]pyrido[2,3-f][1,2,5]thiadiazepin-6(7H)-yl)methyl)-4-methylphenyl)-3-(8-methyl-3-(trifluoromethyl)-[1,2,4]triazolo[4,3-a]pyridin-7-yl)propanoic Acid] and `Cc1ccc([C@@H](CC(=O)O)c2ccn3c(C(F)(F)F)nnc3c2C)cc1CN1C[C@@H]2COCCN2c2ncccc2S1(=O)=O` (relative stereo) [Example 277, (*R)-3-(3-(((*R)-5,5-Dioxido-7a,8,10,11-tetrahydro-[1,4]oxazino[3,4-d]pyrido[2,3-f][1,2,5]thiadiazepin-6(7H)-yl)methyl)-4-methylphenyl)-3-(8-methyl-3-(trifluoromethyl)-[1,2,4]triazolo[4,3-a]pyridin-7-yl)propanoic Acid] are within 1.5-fold of each other in EC50: 112 nM for the first, 102 nM for the second.

same assay, conditions: Homo sapiens, HEK293, 24 h, average of results obtained

Going from `CCn1nnc2c(C)c([C@H](CC(=O)O)c3ccc(C)c(CN4C[C@@H]5CCCN5c5ccccc5S4(=O)=O)c3)ccc21` (relative stereo) [Example 149, (*R)-3-[3-[(5,5-Dioxo-7a,8,9,10-tetrahydro-7H-pyrrolo[2,1-d][1,2,5]benzothiadiazepin-6-yl)methyl]-4-methyl-phenyl]-3-(1-ethyl-4-methyl-benzotriazol-5-yl)propanoic Acid] to `Cc1ccc([C@H](CC(=O)O)c2ccn3c(C(F)(F)F)nnc3c2C)cc1CN1C[C@@H]2CCCCN2c2ccccc2S1(=O)=O` (relative stereo) [Example 299, (*S)-3-(3-(((*S)-5,5-Dioxido-7,7a,8,9,10,11-hexahydro-6H-benzo[f]pyrido[2,1-d][1,2,5]thiadiazepin-6-yl)methyl)-4-methylphenyl)-3-(8-methyl-3-(trifluoromethyl)-[1,2,4]triazolo[4,3-a]pyridin-7-yl)propanoic Acid], the EC50 falls from 250 nM to 11.4 nM (22-fold).

`Cc1ccc([C@H](CC(=O)O)c2ccn3c(C(F)(F)F)nnc3c2C)cc1CN1C[C@]2(C)CCCN2c2ncccc2S1(=O)=O` (relative stereo) [Example 186, (*S)-3-(4-Methyl-3-(((*S)-7a-methyl-5,5-dioxido-7a,8,9,10-tetrahydropyrido[2,3-f]pyrrolo[2,1-d][1,2,5]thiadiazepin-6(7H)-yl)methyl)phenyl)-3-(8-methyl-3-(trifluoromethyl)-[1,2,4]triazolo[4,3-a]pyridin-7-yl)propanoic Acid] and `Cc1ccc([C@H](CC(=O)O)c2ccn3c(C(F)(F)F)nnc3c2C)cc1CN1C[C@H]2CCC(F)(F)CN2c2ncccc2S1(=O)=O` (relative stereo) [Example 454, (*S)-3-(3-(((*R)-10,10-difluoro-5,5-dioxido-7,7a,8,9,10,11-hexahydro-6H-dipyrido[2,1-d:2′,3′-f][1,2,5]thiadiazepin-6-yl)methyl)-4-methylphenyl)-3-(8-methyl-3-(trifluoromethyl)-[1,2,4]triazolo[4,3-a]pyridin-7-yl)propanoic Acid] are within 1.5-fold of each other in EC50: 47 nM for the first, 38.3 nM for the second.

`Cc1ccc([C@H](CC(=O)O)c2ccn3c(C(F)(F)F)nnc3c2C)cc1CN1C[C@H]2CCCCN2c2ncc(Cl)cc2S1(=O)=O` (relative stereo) [Example 193, (*S)-3-(3-(((*R)-3-Chloro-5,5-dioxido-7,7a,8,9,10,11-hexahydro-6H-dipyrido[2,1-d:2′,3′-f][1,2,5]thiadiazepin-6-yl)methyl)-4-methylphenyl)-3-(8-methyl-3-(trifluoromethyl)-[1,2,4]triazolo[4,3-a]pyridin-7-yl)propanoic Acid] and `Cc1cnc2c(c1)S(=O)(=O)N(Cc1cc([C@H](CC(=O)O)c3ccn4c(C(F)(F)F)nnc4c3C)ccc1C)C[C@@H]1CCCCN21` (relative stereo) [Example 307, (*S)-3-(4-methyl-3-(((*S)-3-methyl-5,5-dioxido-7,7a,8,9,10,11-hexahydro-6H-dipyrido[2,1-d:2′,3′-f][1,2,5]thiadiazepin-6-yl)methyl)phenyl)-3-(8-methyl-3-(trifluoromethyl)-[1,2,4]triazolo[4,3-a]pyridin-7-yl)propanoic Acid] are within 1.5-fold of each other in EC50: 1.7 nM for the first, 2 nM for the second.

Going from `CC[C@@H]1CN(Cc2cc([C@H](CC(=O)O)c3ccn4c(C(F)(F)F)nnc4c3C)ccc2C)S(=O)(=O)c2cc(C)cnc2O1` (relative stereo) [Example 194, (*S)-3-(3-(((*R)-4-Ethyl-8-methyl-1,1-dioxido-3,4-dihydro-2H-pyrido[2,3-b][1,4,5]oxathiazepin-2-yl)methyl)-4-methylphenyl)-3-(8-methyl-3-(trifluoromethyl)-[1,2,4]triazolo[4,3-a]pyridin-7-yl)propanoic Acid] to `Cc1ccc([C@H](CC(=O)O)c2ccn3c(C(F)(F)F)nnc3c2C)cc1CN1C[C@@H]2CCCN2c2ncc(C#N)cc2S1(=O)=O` (relative stereo) [Example 206, (*S)-3-(3-(((S)-3-Cyano-5,5-dioxido-7a,8,9,10-tetrahydropyrido[2,3-f]pyrrolo[2,1-d][1,2,5]thiadiazepin-6(7H)-yl)methyl)-4-methylphenyl)-3-(8-methyl-3-(trifluoromethyl)-[1,2,4]triazolo[4,3-a]pyridin-7-yl)propanoic Acid], the EC50 rises from 2 nM to 14 nM (7-fold). The first is the more potent here.

First: Cc1ccc([C@H](CC(=O)O)c2ccn3c(C(F)(F)F)nnc3c2C)cc1CN1C[C@@H]2CCCCN2c2ncc(C(F)(F)F)cc2S1(=O)=O (relative stereo) [Example 198, (*S)-3-(3-(((*S)-5,5-Dioxido-3-(trifluoromethyl)-7,7a,8,9,10,11-hexahydro-6H-dipyrido[2,1-d:2′,3′-f][1,2,5]thiadiazepin-6-yl)methyl)-4-methylphenyl)-3-(8-methyl-3-(trifluoromethyl)-[1,2,4]triazolo[4,3-a]pyridin-7-yl)propanoic Acid]
Second: Cc1ccc([C@H](CC(=O)O)c2ccn3c(C(F)(F)F)nnc3c2C)cc1CN1C[C@H]2CCCCN2c2ncc(C(F)(F)F)cc2S1(=O)=O (relative stereo) [Example 199, (*S)-3-(3-(((*R)-5,5-Dioxido-3-(trifluoromethyl)-7,7a,8,9,10,11-hexahydro-6H-dipyrido[2,1-d:2′,3′-f][1,2,5]thiadiazepin-6-yl)methyl)-4-methylphenyl)-3-(8-methyl-3-(trifluoromethyl)-[1,2,4]triazolo[4,3-a]pyridin-7-yl)propanoic Acid]
The EC50 of the first is 1.6-fold higher: 5.3 nM for the first, 3.3 nM for the second. The second is the more potent here.

Compared with `Cc1ccc([C@H](CC(=O)O)c2ccn3c(C(F)(F)F)nnc3c2C)cc1CN1C[C@@H]2CCCCN2c2nc(C#N)ccc2S1(=O)=O` (relative stereo) [Example 202, (*S)-3-(3-(((*S)-2-Cyano-5,5-dioxido-7,7a,8,9,10,11-hexahydro-6H-dipyrido[2,1-d:2′,3′-f][1,2,5]thiadiazepin-6-yl)methyl)-4-methylphenyl)-3-(8-methyl-3-(trifluoromethyl)-[1,2,4]triazolo[4,3-a]pyridin-7-yl)propanoic Acid], `Cc1ccc([C@H](CC(=O)O)c2ccn3c(C(F)(F)F)nnc3c2C)cc1CN1C[C@H]2CCCCN2c2nc(C#N)ccc2S1(=O)=O` (relative stereo) [Example 204, (*S)-3-(3-(((*R)-2-Cyano-5,5-dioxido-7,7a,8,9,10,11-hexahydro-6H-dipyrido[2,1-d:2′,3′-f][1,2,5]thiadiazepin-6-yl)methyl)-4-methylphenyl)-3-(8-methyl-3-(trifluoromethyl)-[1,2,4]triazolo[4,3-a]pyridin-7-yl)propanoic Acid] is 2.2-fold lower in EC50: 13 nM for the first, 5.9 nM for the second. The second is the more potent here.

First: Cc1ccc([C@H](CC(=O)O)c2ccn3c(C(F)(F)F)nnc3c2C)cc1CN1C[C@@H]2CCCCN2c2nc(C(N)=O)ccc2S1(=O)=O (relative stereo) [Example 203, (*S)-3-(3-(((*S)-2-Carbamoyl-5,5-dioxido-7,7a,8,9,10,11-hexahydro-6H-dipyrido[2,1-d:2′,3′-f][1,2,5]thiadiazepin-6-yl)methyl)-4-methylphenyl)-3-(8-methyl-3-(trifluoromethyl)-[1,2,4]triazolo[4,3-a]pyridin-7-yl)propanoic Acid]
Second: Cc1ccc([C@H](CC(=O)O)c2ccn3c(C(F)(F)F)nnc3c2C)cc1CN1C[C@@H]2CCCCN2c2ncc(F)cc2S1(=O)=O (relative stereo) [Example 309, (*S)-3-(3-(((*S)-3-fluoro-5,5-dioxido-7,7a,8,9,10,11-hexahydro-6H-dipyrido[2,1-d:2′,3′-f][1,2,5]thiadiazepin-6-yl)methyl)-4-methylphenyl)-3-(8-methyl-3-(trifluoromethyl)-[1,2,4]triazolo[4,3-a]pyridin-7-yl)propanoic Acid]
The EC50 of the first is 170-fold higher: 150 nM for the first, 0.9 nM for the second.

Compared with `Cc1ccc([C@H](CC(=O)O)c2ccc3c(nnn3C3CC3)c2C)cc1CN1C[C@]2(C)CCCN2c2ncccc2S1(=O)=O` (relative stereo) [Example 219, (*S)-3-(1-Cyclopropyl-4-methyl-1H-benzo[d][1,2,3]triazol-5-yl)-3-(4-methyl-3-(((*S)-7a-methyl-5,5-dioxido-7a,8,9,10-tetrahydropyrido[2,3-f]pyrrolo[2,1-d][1,2,5]thiadiazepin-6(7H)-yl)methyl)phenyl)propanoic Acid], `Cc1ccc([C@H](CC(=O)O)c2ccn3c(C(F)F)nnc3c2C)cc1CN1C[C@@H]2CCCCN2c2ncccc2S1(=O)=O` (relative stereo) [Example 447, (*S)-3-(3-(Difluoromethyl)-8-methyl-[1,2,4]triazolo[4,3-a]pyridin-7-yl)-3-(3-(((*S)-5,5-dioxido-7,7a,8,9,10,11-hexahydro-6H-dipyrido[2,1-d:2′,3′-f][1,2,5]thiadiazepin-6-yl)methyl)-4-methylphenyl)propanoic Acid] is 1.5-fold lower in EC50: 4.5 nM for the first, 2.93 nM for the second.

`Cc1ccc([C@H](CC(=O)O)c2ccn3c(C(F)(F)F)nnc3c2C)cc1CN1C[C@H]2CCCCN2c2ncc(F)cc2S1(=O)=O` (relative stereo) [Example 310, (*S)-3-(3-(((*R)-3-fluoro-5,5-dioxido-7,7a,8,9,10,11-hexahydro-6H-dipyrido[2,1-d:2′,3′-f][1,2,5]thiadiazepin-6-yl)methyl)-4-methylphenyl)-3-(8-methyl-3-(trifluoromethyl)-[1,2,4]triazolo[4,3-a]pyridin-7-yl)propanoic Acid] showed an EC50 of 3 nM.
